The target of this experiment is T1, Nuclear receptor ROR-gamma (Homo sapiens, UniProt P51449).
T1 sequence (P51449 whole entry): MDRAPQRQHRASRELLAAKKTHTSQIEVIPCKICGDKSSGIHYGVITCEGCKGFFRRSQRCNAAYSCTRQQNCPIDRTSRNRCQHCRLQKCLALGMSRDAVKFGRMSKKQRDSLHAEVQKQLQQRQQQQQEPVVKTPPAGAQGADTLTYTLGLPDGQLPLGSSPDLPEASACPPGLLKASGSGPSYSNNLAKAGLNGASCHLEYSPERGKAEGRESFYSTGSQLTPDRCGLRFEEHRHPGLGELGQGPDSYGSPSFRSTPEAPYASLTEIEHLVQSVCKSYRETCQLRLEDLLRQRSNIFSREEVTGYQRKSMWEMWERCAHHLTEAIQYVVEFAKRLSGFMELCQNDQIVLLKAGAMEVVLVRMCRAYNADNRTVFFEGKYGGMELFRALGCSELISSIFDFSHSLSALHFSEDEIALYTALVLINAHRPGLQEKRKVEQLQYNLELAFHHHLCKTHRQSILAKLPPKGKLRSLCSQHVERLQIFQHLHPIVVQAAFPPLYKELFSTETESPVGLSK
Briefly: ROR gamma t 5xRORE Assay in Jurkat Cells (Assay 2): Compounds of the present invention were tested for ROR gamma inverse agonist activity in a cell-based, transcriptional activity assay. […] (Promega, Cat. # N1021) using KpnI and HindIII restriction sites. […] Luciferase activity in the conditioned supernatants was determined with NanoGlo assay reagents (Promega, Cat.# N1130).

The structures appear in SMILES notation.

The term IC50 denotes the midpoint of a concentration-inhibition curve. Take `CCS(=O)(=O)c1ccc(C2(NC(=O)c3cnc4c(c3)CN(Cc3ccc(C(F)(F)F)cc3)[C@H]4C(C)C)CC2)nc1`: the IC50 was less than 100 nM.

Values taken from ChEMBL document CHEMBL5727282, “Dihydropyrrolopyridine inhibitors of ROR-gamma” (2019).
